From PubChem BioAssay AID1996
Converted amounts (≈) assume the structure as drawn.

Details: buffer; pH 7.4; 200.0 µM

| SMILES | solubility kinetic |
| --- | --- |
| O=C(COC(=O)/C=C/c1ccc(Cl)c(Cl)c1)NC1CC1 | 4.4 µg/mL (≈ 14 µM) |
| CN(C)/C=N/c1ncc(C(=O)c2ccc(Cl)cc2Cl)s1 | 41.6 µg/mL (≈ 127 µM) |
| Cc1cc(C)c(S(=O)(=O)c2ccc(F)cc2C)c(=O)[nH]1 | > 44.3 µg/mL |
| C[N+](C)(C)CCOC(=O)CCC(=O)OCC[N+](C)(C)C.O.[Cl-] | > 59.6 µg/mL |
| CC(C)NCC(=O)C12CC3CC(CC(C3)C1)C2 | 28.7 µg/mL (≈ 122 µM) |
| O=C(Nc1cccc(S(=O)(=O)Nc2ccc(SC(F)F)cc2)c1)C1CCC1 | 34.8 µg/mL (≈ 84.4 µM) |
| Cc1nn(C)cc1CN(C)S(=O)(=O)c1cccc([N+](=O)[O-])c1 | > 48.7 µg/mL |
| O=C(OCC(=O)N1CCOCC1)c1cc(F)c(F)cc1Cl | > 48 µg/mL |
| O=C(O)CC1(CC(=O)NCc2csc(-c3cccs3)n2)CCCCC1 | 44.9 µg/mL (≈ 119 µM) |
| NC(=O)c1c(NC(=O)COC(=O)c2ccc(O)c(Cl)c2)sc2c1CCCC2 | 8.5 µg/mL (≈ 20.8 µM) |
| CCSc1nnc(NC(=O)c2nc3nc(C)cc(C)n3n2)s1 | > 50.3 µg/mL |
| CC1(NC(=S)Nc2ccccc2)CCS(=O)(=O)C1 (centres undefined) | > 42.7 µg/mL |
| CN1C2=C(C(=O)CC(C)(C)C2)C(c2cccs2)C2=C1CC(C)(C)CC2=O | 32.6 µg/mL (≈ 88.2 µM) |
| CCCCN(C(=O)C1CCCO1)c1c(N)n(CCC)c(=O)[nH]c1=O (centres undefined) | > 50.8 µg/mL |
| O=C(OCC(=O)N1CCCC1)c1cc([N+](=O)[O-])ccc1Cl | > 46.9 µg/mL |
| Cc1ccc(C(=O)NC(=S)N2CCCC2)cc1 | > 37.3 µg/mL |
| CCc1noc(C)c1C(=O)NCCc1ccc(F)cc1 | > 41.4 µg/mL |
| Br.CCn1c2c(c(=N)c3c1CCC3)CCCC2 | > 44.6 µg/mL |
| C=Cn1cc[n+](CC(=O)c2ccc(Br)cc2)c1.[Br-] | > 55.8 µg/mL |

| SMILES | solubility kinetic |
| --- | --- |
| CC(=O)N1CCN(Cc2nc3cc([N+](=O)[O-])ccc3n2C)CC1 | 45.1 µg/mL (≈ 142 µM) |
| COc1ccc(CCNCC2CCCO2)cc1.Cl (centres undefined) | 35.2 µg/mL |
| CCc1ccc(NC(=O)N[C@H](C(=O)O)C(C)CC)cc1 (some centres undefined) | > 41.8 µg/mL |
| Cc1ccc(OCC(=O)N2CCCCCCC2)cc1 | > 39.2 µg/mL |
| CCn1cc(S(=O)(=O)N2CCc3ccccc3C2)cn1 | > 43.7 µg/mL |
| CC(C)OP(=O)(c1ccc(N(C)C)cc1)C(O)c1cccnc1 (centres undefined) | > 50.2 µg/mL |
| Cc1ccc(CNC(=S)N2CCOCC2)cc1 | > 37.6 µg/mL |
| O=C1c2ccc([N+](=O)[O-])cc2C(=O)N1c1ccc([N+](=O)[O-])cn1 | 41.3 µg/mL (≈ 131 µM) |
| O/N=C\c1cnc(N2CCN(c3ccccc3)CC2)s1 | 2.9 µg/mL (≈ 10.1 µM) |
| CC1CCN(C(=O)CSc2nnc(N)s2)CC1 | > 40.9 µg/mL |
| COc1ccc(Br)cc1CN1CCN(c2ncccn2)CC1 | 38.8 µg/mL (≈ 107 µM) |
| CCC(=O)Nc1sc2c(c1C#N)CCC2 | 12.3 µg/mL (≈ 55.8 µM) |
| Cl.c1csc(CNCc2ccncc2)c1 | > 36.1 µg/mL |
| O=C(NCC(=O)N1CCN(c2ccccc2O)CC1)c1cccs1 | > 51.8 µg/mL |
| O=C(NCCC1CC1(Cl)Cl)c1ccc([N+](=O)[O-])cc1 (centres undefined) | 36.9 µg/mL (≈ 122 µM) |
| CCOc1ccc(C(C)=O)cc1CN1C(=O)NC(C)(C2CC2)C1=O (centres undefined) | 41.3 µg/mL (≈ 125 µM) |
| CCn1c(SCc2cccc(F)c2)nc2c(c1=O)SCC2 | 11.2 µg/mL (≈ 34.7 µM) |
| O=C(/C=C/c1ccc(S(=O)(=O)N2CCOCC2)cc1)NC(CO)C(O)c1ccc([N+](=O)[O-])cc1 (centres undefined) | > 73.7 µg/mL |
| Cc1ccc(-c2csc3ncnc(N4CCN(C)CC4)c23)cc1C | 45.7 µg/mL (≈ 135 µM) |

Other lines, results leading:

| solubility kinetic | SMILES |
| --- | --- |
| 6.8 µg/mL (≈ 22.1 µM) | CCCOc1ccccc1/C=C(\C#N)C(=O)Nc1cccnc1 |
| 26.7 µg/mL (≈ 78 µM) | O=C(c1ccccc1Br)N1CCn2c1nc1ccccc12 |
| 1.9 µg/mL (≈ 5.24 µM) | COc1ccc(C(=O)Nc2cc(C)c(NC(=O)c3ccccn3)cn2)cc1 |
| 5.2 µg/mL (≈ 16.4 µM) | Cc1ccc(CNC(=O)CCSCc2cccc(F)c2)cc1 |
| 7.6 µg/mL (≈ 21.2 µM) | O=C(NCc1ccccc1)c1cccc(S(=O)(=O)N2CCCCC2)c1 |
| > 39 µg/mL | COCCNc1nnc(Cc2ccccc2)c(=O)[nH]1 |
| 5.9 µg/mL (≈ 21 µM) | Cc1ccc2ncnc(Nc3cccc([N+](=O)[O-])c3)c2c1 |
| 3.9 µg/mL (≈ 11.9 µM) | O=C(COC(=O)c1ccc(F)cc1F)Nc1ccc(Cl)cn1 |
| 4.8 µg/mL (≈ 14.2 µM) | O=C(NCc1cccnc1)C(=O)Nc1nc(-c2ccccc2)cs1 |
| > 47.9 µg/mL | COc1ccccc1-c1nnc(SCC(=O)N2CCCC2)o1 |
| 18.1 µg/mL (≈ 59.6 µM) | Cc1cc(Cl)ccc1NC(=O)C1COc2ccccc2O1 (centres undefined) |
| 48.5 µg/mL (≈ 147 µM) | CCOC(=O)C1=C(C)N=C2SC(C)C(=O)N2C1c1ccccc1 (centres undefined) |
| 13.6 µg/mL (≈ 49.2 µM) | Cc1cc(C(=O)Nc2cccc([N+](=O)[O-])c2C)cs1 |
| 19.7 µg/mL (≈ 57.9 µM) | O=C(COC(=O)c1cc(=O)[nH]c2ccccc12)Nc1ccccc1F |
| 6.2 µg/mL (≈ 20.5 µM) | O=C(NC(=S)Nc1ccccn1)c1cccc([N+](=O)[O-])c1 |
| 10.7 µg/mL (≈ 34.6 µM) | N#C/C(=C/c1cccc([N+](=O)[O-])c1)C(=O)Nc1ccccc1O |
| < 0.4 µg/mL | COc1cc(NC(=O)c2ccccc2)ccc1NC(=O)Cc1ccccc1 |
| 16 µg/mL (≈ 52.9 µM) | COc1ccc(CCNC(=O)c2cccnc2SC)cc1 |
| > 40.4 µg/mL | Cc1ccc(C(=O)NCC(=O)Nc2ccncc2)cc1 |
| 16.6 µg/mL (≈ 55.5 µM) | COc1ccc(-c2cn3cc([N+](=O)[O-])ccc3n2)cc1OC |
| > 38.7 µg/mL | O=C1c2cccc3c([N+](=O)[O-])ccc(c23)C(=O)N1O |
| > 47.9 µg/mL | O=C(O)CN(CCc1ccccc1)S(=O)(=O)c1ccccc1 |
| 1.9 µg/mL (≈ 6.18 µM) | COc1cc(OC)cc(C(=O)Nc2cccc3ccccc23)c1 |

| solubility kinetic | SMILES |
| --- | --- |
| 2.2 µg/mL (≈ 7.07 µM) | CCOc1ccc(-c2noc(-c3cccnc3)n2)cc1OCC |
| > 53.5 µg/mL | C/C(=N\OCC(=O)Nn1c(C)nc2ccccc2c1=O)c1cccs1 |
| 1 µg/mL (≈ 3.03 µM) | COC(=O)c1ccc2c(=O)n(-c3ccccc3F)c(=S)[nH]c2c1 |
| 11.6 µg/mL (≈ 32.1 µM) | O=C(CCNc1ccc(Cc2ccncc2)cc1)c1ccc([N+](=O)[O-])cc1 |
| 32.8 µg/mL (≈ 102 µM) | O=C(CCSCc1ccccc1F)NCc1ccc(F)cc1 |
| 17.4 µg/mL (≈ 60.6 µM) | O=C(CN1C(=O)c2ccccc2C1=O)Nc1nccs1 |
| 42.6 µg/mL (≈ 145 µM) | COc1ccc(NC(=O)c2cncn2-c2ccccc2)cc1 |
| < 0.7 µg/mL | NC(=O)C(c1ccccc1)c1ccc(C(=O)c2ccccc2)cc1 (centres undefined) |
| 2.8 µg/mL (≈ 9.85 µM) | Cc1cccc(Nc2nc(OCC#N)nc(N(C)C)n2)c1 |
| > 47.5 µg/mL | O=C(Nc1ccccc1Cl)C1Cc2ccccc2O/C1=N\O (centres undefined) |
| 3.6 µg/mL (≈ 12.6 µM) | O=C(Nc1ccc(Cl)cn1)c1ccc2nccnc2c1 |
| 2.8 µg/mL (≈ 5.7 µM) | CCN(c1ccccc1)S(=O)(=O)c1ccc(C(=O)NCC(=O)Nc2ccc(F)c(F)c2F)cc1 |
| 45.3 µg/mL (≈ 140 µM) | CC(=O)Nc1ccc(SCc2ncc(-c3ccccc3)o2)cc1 |
| > 45.8 µg/mL | COP(=O)(c1ccc(N(C)C)cc1)C(O)c1ccccc1 (centres undefined) |
| > 41.4 µg/mL | COc1cccc(NC(=O)c2c([N+](=O)[O-])cnn2C)c1 |
| 3.7 µg/mL (≈ 10.9 µM) | Cc1c(C(=O)c2ccccc2)c2ccccn2c1CCc1ccccn1 |
| 44.6 µg/mL (≈ 145 µM) | Cc1nc2ccccc2c2oc(C(=O)N3CCCC(C)C3)cc12 (centres undefined) |
| > 39.3 µg/mL | COc1ccc(Nc2nc(OC)nc(OC)n2)cc1 |
| > 60 µg/mL | O=C(O)CC1(CC(=O)Nc2ccc(Cl)cc2C(=O)c2ccccc2)CCCC1 |
| > 58.3 µg/mL | COc1ccc(NS(=O)(=O)c2ccc(C(=O)N3CCC(C)CC3)cc2)cc1 |
| 0.9 µg/mL (≈ 2.85 µM) | O=C(NCc1ccc2c(c1)OCO2)Nc1ccc([N+](=O)[O-])cc1 |
| 11.3 µg/mL (≈ 37.8 µM) | CCOc1ccc(C(=O)NCc2ccc3c(c2)OCO3)cc1 |
| > 43.1 µg/mL | CN(CC(=O)Nc1ccc(F)cc1)C(=O)c1ccncc1 |
